A word on the solubility (kinetic): it is solubility judged after dilution from a stock solution rather than from solid.

Values after ≈ are worked out from the molar mass of the structure shown.

The conditions of this data set: buffer; pH 7.4; 200.0 µM.
Take `COc1ccc(CCN2CC(C(=O)Nc3nccs3)CC2=O)cc1OC` (stereo not given): the kinetic solubility was over 56.3 µg/mL.

For `Cl.NC(Cc1ccccc1)Cc1ccccc1`, the solubility (kinetic) is over 37.2 µg/mL. Take `COC(=O)c1ccc(NC(=O)CNc2ccccc2)cc1`: the kinetic solubility was determined as 28.3 µg/mL (≈ 99.5 µM). To `CN1CCN(S(=O)(=O)c2cc([N+](=O)[O-])ccc2Cl)CC1` belongs over 48 µg/mL. As to `CC(C)CC1NC(=O)N(CC(=O)Nc2ccc3c(c2)CCC3)C1=O` (stereo not given), the solubility (kinetic) was determined as 5.6 µg/mL (≈ 17 µM). Compound `O=C1CSC(c2cccc([N+](=O)[O-])c2)N1CCc1ccccc1` (stereo not given) came in with a kinetic solubility of 25.8 µg/mL (≈ 78.6 µM).

In the case of `CC(=O)c1ccc(NC(=O)COC(=O)Cc2ccsc2)cc1`, the kinetic solubility was over 47.6 µg/mL. In turn, `CCOC(=O)Nc1ccc2nc3n(c(=O)c2c1)CCCCC3` yielded a kinetic solubility of 9.1 µg/mL (≈ 30.2 µM). Compound `Cc1nc(N)c(CC(Br)CBr)c(Cl)n1` (stereo not given) returned a kinetic solubility of 49.1 µg/mL (≈ 143 µM).

In turn, `O=C(CC1(CC(=O)N2CCOCC2)CCCC1)Nc1ccc(F)cc1` returned a solubility (kinetic) of over 52.3 µg/mL. As to `COC(=O)C1=C(C)N(C)C(=O)NC1c1ccc(O)c(Cl)c1` (stereo not given), the solubility (kinetic) is over 46.6 µg/mL. For the compound `O=C(NC(=S)Nc1cccc2ncccc12)c1ccco1`, the kinetic solubility was 13.3 µg/mL (≈ 44.7 µM). To `NC(=O)c1c(NC(=O)c2ccccc2F)sc2c1CCCC2` belongs 3 µg/mL (≈ 9.42 µM); to `Cc1cc(Cl)ccc1OC(C)C(=O)NC(C)C1CCCO1` (stereo not given), over 46.8 µg/mL; to `Cc1ccccc1OCCCCn1c(CO)nc2ccccc21`, 29.2 µg/mL (≈ 94.1 µM).

Consider `CCOP(=O)(OCC)C(Nc1ccc(C)cc1)c1ccco1` (stereo not given), for which the solubility (kinetic) is 46.3 µg/mL (≈ 143 µM). To `COC(=O)c1sc(S(=O)(=O)N2CCN(c3ccccc3F)CC2)c(C(=O)OC)c1C` belongs 2.1 µg/mL (≈ 4.6 µM); to `CC(=O)NCCc1nc2ccccc2n1CCOc1ccccc1`, over 48.5 µg/mL; to `CC(C)(C)c1ccc(N=C2SCC(=O)N2Cc2cccs2)cc1`, 0.4 µg/mL (≈ 1.16 µM).

Take `Cc1ccccc1C(=O)NC1CCSC1=O` (stereo not given): the solubility (kinetic) is over 35.3 µg/mL.

In the case of `O=C(CSc1ncccn1)Nc1cccc2ccccc12`, the kinetic solubility is over 44.3 µg/mL. For `CCc1nc(Nc2ccc(F)cc2)c2oc3ccccc3c2n1.Cl` the value was 0.8 µg/mL; for `C/C(=N\NC(=O)c1ccncc1)c1cccnc1`, over 36 µg/mL. `O=C(O)C1C2CCC(O2)C1C(=O)Nc1ccc(F)c(Cl)c1` (stereo not given) gave a kinetic solubility of over 47.1 µg/mL.

On to `O=C(COc1ncnc2ccccc12)N1CCN(c2ccccc2)CC1`, for which the kinetic solubility is over 52.3 µg/mL. Turning to `O=C(NCc1ccccc1)c1ccc(Cl)c(S(=O)(=O)N2CCCC2)c1`, the solubility (kinetic) came out at 33.9 µg/mL (≈ 89.5 µM). With `CN1CCN(CCCNc2c(C=O)c(=O)[nH]c3ccccc23)CC1`, the solubility (kinetic) worked out at 34.1 µg/mL (≈ 104 µM). Take `Cc1ccc(-c2cc(C(=O)N3CCOCC3)c3ccccc3n2)o1`: the kinetic solubility was over 48.4 µg/mL. On to `O=C(NC(=O)c1ccccc1F)OCc1ccc(Cl)cc1Cl`, for which the kinetic solubility was under 0.7 µg/mL. To `O=C(Nc1nccs1)c1c(O)c2c(n(Cc3ccco3)c1=O)CCCC2` belongs under 0.3 µg/mL; to `CCN(CC)S(=O)(=O)c1cc(NC(=O)CCc2c(C)noc2C)ccc1C`, over 59 µg/mL; to `CC1(C)C2([N+](=O)[O-])CN3CC1([N+](=O)[O-])CN(C2)C3c1ccc(O)c(O)c1` (stereo not given), 3.5 µg/mL (≈ 9.61 µM).

Compound `C=CCn1cccc(C(=O)Nc2ccc(C)c(Cl)c2)c1=O` returned a kinetic solubility of under 0.3 µg/mL.

Compound `COCCCNc1nc(N)c([N+](=O)[O-])c(Nc2ccccc2OC)n1` showed a kinetic solubility of 1 µg/mL (≈ 2.87 µM). `CCOc1ccc(Br)cc1C(=S)N1CCCC1` displayed a kinetic solubility of 6.2 µg/mL (≈ 19.7 µM). `Cc1cc(C)c2c(n1)sc1c(N3CCCCC3)ncnc12` registered a solubility (kinetic) of under 0.2 µg/mL. Take `S=C1NCN(CCc2ccccc2)CN1`: the kinetic solubility was over 33.2 µg/mL. `O=C(OCC(=O)N1CCc2ccccc2C1)c1cccs1` showed a kinetic solubility of 36.8 µg/mL (≈ 122 µM).

Compound `Cc1ccccc1NC(=S)NC(=O)COc1ccccc1C` came in with a solubility (kinetic) of 1.1 µg/mL (≈ 3.5 µM). The compound `Cc1cc(Nc2ccc([N+](=O)[O-])cc2)c2ccccc2n1` returned a solubility (kinetic) of 0.6 µg/mL (≈ 2.15 µM). To `CC(C)CNC(=O)COC(=O)c1ccc(F)cc1Cl` belongs over 43.2 µg/mL.

Consider `Cn1c(=O)c2cc3ccccc3nc2n(C)c1=O`, for which the solubility (kinetic) stood at 4.3 µg/mL (≈ 17.8 µM). Take `N#Cc1ccc(NC(=O)c2cc(=O)c3ccccc3o2)cc1`: the kinetic solubility was 0.8 µg/mL (≈ 2.76 µM).

In turn, `COC(=O)c1sccc1NC(=O)c1ccc(C#N)cc1` yielded a solubility (kinetic) of 1.8 µg/mL (≈ 6.29 µM). In turn, `NC(=O)c1cc(-c2ccncc2)nc2ccc(Cl)cc12` came in with a kinetic solubility of 37 µg/mL (≈ 130 µM). In the case of `C#CCn1ccc(O)c(Cc2ccccc2)c1=O`, the kinetic solubility is over 35.9 µg/mL. For `Cc1nc(SCc2ccc(F)cc2)c2oc3ccccc3c2n1` the value was under 0.3 µg/mL; for `CCN1CCN(CC2COc3ccccc3O2)CC1.Cl` (stereo not given), over 50.3 µg/mL. For `Nc1cc(N)cc(C(=O)Nc2ccc3c(c2)C(=O)NC3=O)c1` the value was over 44.4 µg/mL. Compound `CC(C)(C)Cc1nnc(NC(=O)c2ccco2)s1` yielded a solubility (kinetic) of over 39.8 µg/mL.

`Cc1ccc(Cl)cc1Nc1nc(-c2cccnc2)cs1` came in with a solubility (kinetic) of 0.2 µg/mL (≈ 0.663 µM).

The compound `Cc1cccc(C(=O)Nc2ccc(NC(=O)CN3CCOCC3)cc2)c1` showed a solubility (kinetic) of 22.7 µg/mL (≈ 64.2 µM). Compound `COc1ccc(C2(C)NC(=O)N(CC(=O)NC3CC3)C2=O)cc1` (stereo not given) had a solubility (kinetic) of 43.3 µg/mL (≈ 136 µM).

For the compound `O=C(NCc1ccc(Cl)cc1)[C@@H]1CCCN1S(=O)(=O)c1ccc(Cl)cc1`, the kinetic solubility turned out to be 31.3 µg/mL (≈ 75.7 µM). In the case of `NS(=O)(=O)c1ccc(CCNC(=O)CSCc2ccccc2)cc1`, the solubility (kinetic) amounted to 42.6 µg/mL (≈ 117 µM). To `C=CCC1(/C=N/O)CCOC(C)(C)C1` (stereo not given) belongs over 29.6 µg/mL. With `COc1cc([N+](=O)[O-])ccc1NC(=O)/C=C/C(=O)O`, the solubility (kinetic) is over 39.9 µg/mL. To `CCCCOc1ccc(C(=O)N2CCN(c3ncccn3)CC2)cc1` belongs 12.2 µg/mL (≈ 35.8 µM); to `COc1ccc(C(=O)NC2CCCc3ccccc32)c(OC)c1OC` (stereo not given), 41.9 µg/mL (≈ 123 µM). For `O=C(O)c1cccc(NC(=O)c2ccccc2NC(=O)c2ccco2)c1`, the solubility (kinetic) is over 52.5 µg/mL.

`COc1ccc(CNCc2cccn2C)cc1.Cl` displayed a kinetic solubility of over 40 µg/mL. In turn, `COc1cc(CNCc2cccc3ccccc23)cc(OC)c1` showed a kinetic solubility of 34.1 µg/mL (≈ 111 µM). `COc1ccc(S(=O)(=O)n2c([N+](=O)[O-])cnc2C)cc1OC` showed a solubility (kinetic) of over 49.1 µg/mL. Take `O=S(=O)(NCc1ccccn1)c1cc(Cl)ccc1Cl`: the solubility (kinetic) was over 47.6 µg/mL. For the compound `O=Cc1c(NCc2ccco2)nc2ccccn2c1=O`, the kinetic solubility stood at 19.5 µg/mL (≈ 72.4 µM). The compound `O=C(c1ccccc1F)N1CCN(C(=O)C2CC2)CC1` yielded a solubility (kinetic) of over 41.4 µg/mL. For the compound `Cc1ccc(CNC(=O)c2cccnc2Sc2cccc(Cl)c2)cc1`, the solubility (kinetic) came to 0.5 µg/mL (≈ 1.36 µM). For `COC(=O)CCCNC(=O)c1ccccn1` the value was over 33.3 µg/mL; for `O=C(O)C1(c2ccccc2)CCC(Nc2ccccc2)C1` (stereo not given), 39.7 µg/mL (≈ 141 µM); for `COCC(=O)Nc1ccc(S(=O)(=O)N2CCCC2)cc1`, over 44.8 µg/mL.

`CCn1cc(CCC(=O)NCCN2CCOCC2)c2ccccc21` had a solubility (kinetic) of 48.9 µg/mL (≈ 148 µM). On to `OC(CNCCc1c[nH]c2ccccc12)C(F)(F)F` (stereo not given), for which the kinetic solubility was over 40.8 µg/mL.

As to `Brc1c(-c2ccc3c(c2)OCO3)nc2ncccn12`, the solubility (kinetic) came out at 38.8 µg/mL (≈ 122 µM).

Compound `COC(=O)/C=C1\SC(=NC(=O)c2ccc(OC)cc2)NC1=O` displayed a kinetic solubility of 12 µg/mL (≈ 37.5 µM). For `COc1ccc(NC(=O)CCCn2cnc3ccccc3c2=O)cc1` the value was over 50.6 µg/mL; for `COc1ccccc1NC(=O)C(=O)/C=C(\O)c1ccccc1`, 10.8 µg/mL (≈ 36.3 µM). The compound `Cc1nc2ccccc2c(=O)n1-c1ccncc1` registered a kinetic solubility of 29.1 µg/mL (≈ 123 µM).

`O=C1C[C@H](NC(=O)OCc2ccccc2)CO1` showed a kinetic solubility of over 35.3 µg/mL. The compound `O=c1c(Cc2ccc(Cl)cc2)c(O)ccn1Cc1cccs1` showed a kinetic solubility of 4.6 µg/mL (≈ 13.9 µM).

For the compound `CCN1CC(CN(C)Cc2nc(-c3ccc(Cl)cc3)no2)CC1=O` (stereo not given), the kinetic solubility is over 52.3 µg/mL. `COc1ccc(OC)c(N2C(=O)c3cccnc3C2=O)c1` displayed a kinetic solubility of over 42.6 µg/mL.

For the compound `CC(CC(=O)Nc1cccnc1)c1ccccc1` (stereo not given), the solubility (kinetic) is over 36 µg/mL. The compound `Fc1ccc(CNC(=S)NCc2ccc(F)cc2)cc1` came in with a solubility (kinetic) of 6.4 µg/mL (≈ 21.9 µM). Take `COc1cc(CC(=O)OCC(=O)N(C)C2CCCCC2)cc(OC)c1OC`: the solubility (kinetic) was found to be 52.4 µg/mL (≈ 138 µM). For `O=c1c2oc3ccccc3c2ncn1Cc1cccc(Cl)c1` the value was under 0.3 µg/mL; for `CS(=O)(=O)N1CCN=C1SCc1cccc(F)c1`, 42.6 µg/mL (≈ 148 µM); for `CCn1ccnc1CNC(=O)c1ccc2oc(C(C)C)nc2c1`, over 46.9 µg/mL. For `Cc1noc(C)c1-c1nc(CS(=O)(=O)c2ccc(F)cc2)no1` the value was 43.4 µg/mL (≈ 129 µM); for `COC(=O)/C(C#N)=C/c1ccc(N2CCOCC2)c([N+](=O)[O-])c1`, 11 µg/mL (≈ 34.7 µM); for `NS(=O)(=O)c1ccc(NC(=O)CN2C(=O)CCC2=O)cc1`, over 46.7 µg/mL.

`O=C(CCS(=O)(=O)c1ccccc1)NCc1ccccc1`: the solubility (kinetic) is over 45.5 µg/mL.

The compound `COc1cccc(CNc2ccccn2)c1O` came in with a solubility (kinetic) of over 34.5 µg/mL. For `Cc1cccc(NS(=O)(=O)c2cc(Cl)ccc2Cl)n1`, the kinetic solubility is over 47.6 µg/mL. Compound `COCC(=O)Nc1ccc(N2CCOCC2)c(S(=O)(=O)Nc2ccc(OC)cc2)c1` returned a solubility (kinetic) of over 65.3 µg/mL.

Compound `Clc1ccc(N=C2SCCS2)cc1` returned a kinetic solubility of 11 µg/mL (≈ 47.9 µM). To `O=C(CN1C(=O)c2cccc3cccc(c23)C1=O)NCCCO` belongs over 46.8 µg/mL; to `CS(=O)(=O)N(CC(=O)Nc1cccc(Br)c1)Cc1ccccc1`, 51.3 µg/mL (≈ 129 µM). As to `C=CCN(c1ccccc1)S(=O)(=O)c1cccc(C(=O)NCc2ccco2)c1`, the kinetic solubility was 23.9 µg/mL (≈ 60.3 µM). For `CCc1nc2cc(Cl)c(Cl)cc2nc1CC`, the kinetic solubility is under 0.3 µg/mL. As for `O=C(c1cc(-c2ccc(Cl)cc2)on1)N1CCCC1`, the solubility (kinetic) came to 1.4 µg/mL (≈ 5.06 µM). Compound `COc1ccccc1Nc1nc(Cl)nc(NC(C)(C)C)n1` displayed a solubility (kinetic) of 6.5 µg/mL (≈ 21.1 µM).

The compound `COc1cccc(CN2CCc3[nH]c(=S)[nH]c(=O)c3C2)c1` registered a solubility (kinetic) of over 45.5 µg/mL. For `Cc1ccc(C(=O)N2CCN(Cc3ccccc3)CC2)o1`, the kinetic solubility was over 42.7 µg/mL. Turning to `CCOC(=O)C(Cc1ccc(Cl)cc1Cl)c1ccno1` (stereo not given), the solubility (kinetic) was 11.7 µg/mL (≈ 37.2 µM). For `COc1ccc(C(=O)NCc2ccccc2C)cc1S(=O)(=O)NC1CCCC1` the value was 33.6 µg/mL (≈ 83.5 µM).

For the origin of these results see PubChem BioAssay AID1996.
